Test results from patent publication US5464617A, “β-lactam compounds” (Hoffmann-La Roche Inc., priority 1994, dated 1995).
In brackets after ≈: the same amount, converted by molar mass. Counter-ions that a name gives are not always drawn.

Assays:
[1] = system: Citrobacter freundii 1982; assay: MIC in vitro of a 1:4 combination of ceftriaxone with a compound of formula I (Test D); type: cell-based; settings: Table 4; test D, 1:4 combination of ceftriaxone with the compound
Protocol: The minimum inhibitory concentration in vitro ([…]) of a 1:4 combination of ceftriaxone with a compound of formula I against Citrobacter freundii 1982 was measured and compiled in Table 2 hereinafter.

[2] = system: E. coli 1346; assay: Antibacterial activity of the products per se, serial dilution method in liquid medium (Test E); type: cell-based; settings: Table 4; test E, product per se
From the text: The antibacterial activity of the products per se is illustrated on the basis of Table 3 hereinafter, the minimum inhibitory concentration […] in vitro against E. coli 1346 being determined using the serial dilution method in liquid medium: […]

## NC(=O)OCC1=C(C(=O)O)N2C(=O)[C@@H]3[C@H]2[C@H](C1)CN3C(=O)NCc1ccccc1 [Example 27(c), (1aS,3aR,6bR)-2-Benzylcarbamoyl-5-carbamoyloxymethyl-1-oxo-1a,2,3,3a,4,6b-hexahydro-1H-2,6a-diazacyclobut[cd]indene-6-carboxylic acid sodium salt]
[1]
  MIC C. freundii 1982 (D): 0.25 µg/mL
[2]
  MIC E. coli 1346 (E): > 32 µg/mL

## Cc1nnc(SCC2=C(C(=O)O)N3C(=O)[C@H]4NC[C@@H](O2)[C@H]43)s1 [Example 29(a), (1aS,3aR,6bS)-5-(5-Methyl-1,3,4-thiadiazol-2-ylsulphanylmethyl)-1-oxo-1,1a,2,3,3a,6b-hexahydro-4-oxa-2,6a-diazacyclobut[cd]indene-6-carboxylic acid sodium salt]
[1]
  MIC C. freundii 1982 (D): 1 µg/mL
[2]
  MIC E. coli 1346 (E): 1 µg/mL

## O=C(O)C1=C(CSc2ccncc2)O[C@@H]2CN[C@@H]3C(=O)N1[C@@H]32 [Example 29(b), (1aS,3aR,6bS)-1-Oxo-5-(pyridin-4-ylsulphanylmethyl)-1,1a,2,3,3a,6b-hexahydro-4-oxa-2,6a-diazacyclobut[cd]indene-6-carboxylic acid]
[1]
  MIC C. freundii 1982 (D): 2 µg/mL
[2]
  MIC E. coli 1346 (E): > 16 µg/mL

## Nc1nnc(SCC2=C(C(=O)O)N3C(=O)[C@H]4NC[C@@H](O2)[C@H]43)s1 [Example 29(c), (1aS,3aR,6bS)-S-(S-Amino-1,3,4-thiadiazol-2-yl-sulphanylmethyl)-1-oxo-4-oxa-1,1a,2,3,3a,6b-hexahydro-2,6a-diazacyclobut[cd]indene-6-carboxylic acid sodium salt]
[1]
  MIC C. freundii 1982 (D): 0.5 µg/mL
[2]
  MIC E. coli 1346 (E): 2 µg/mL

## Cc1cc(SCC2=C(C(=O)O)N3C(=O)[C@H]4NC[C@@H](O2)[C@H]43)n2nc(C(N)=O)nc2n1 [Example 29(d), (1aS,3aR,6bS)-5-(2-Carbamoyl-5-methyl[1,2,4]triazolo-[1,5-a]pyrimidin-7-ylsulphanylmethyl)-1-oxo-1,1a,2,3,3a,6b-hexahydro-4-oxa-2,6a-diazacydobut[cd]indene-6-carboxylic acid]
[1]
  MIC C. freundii 1982 (D): 8 µg/mL
[2]
  MIC E. coli 1346 (E): 4 µg/mL (≈ 9.58 µM)

## Cn1nnnc1SCC1=C(C(=O)O)N2C(=O)[C@H]3NC[C@@H](O1)[C@H]32 [Example 29(e), (1aS,3aR,6bS)-5-(1-Methyl-1H-tetrazol-5-ylsulphanylmethyl)-1-oxo-1,1a,2,3,3a,6b-hexahydro-4-oxa-2,6a-diazacyclobut[cd]indene-6-carboxylic acid sodium salt]
[1]
  MIC C. freundii 1982 (D): 0.5 µg/mL
[2]
  MIC E. coli 1346 (E): 1 µg/mL

## O=C(Cn1nnnc1SCC1=C(C(=O)O)N2C(=O)[C@H]3NC[C@@H](O1)[C@H]32)NC1CC1 [Example 29(g), (1aS,3aR,6bS)-5-(1-(cyclopropyl-carbamoylmethyl)-1H-tetrazol-5-ylsulphanylmethyl)-1-oxo-1,1a,2,3,3a,6b-hexahydro-4-oxa-2,6a-diazacyclobut[cd]indene-6-carboxylic acid]
[1]
  MIC C. freundii 1982 (D): 8 µg/mL
[2]
  MIC E. coli 1346 (E): 8 µg/mL (≈ 19.6 µM)

## NC(=O)Cn1nnnc1SCC1=C(C(=O)O)N2C(=O)[C@H]3NC[C@@H](O1)[C@H]32 [Example 29(j), (1aS,3aR,6bS)-5-(1-Carbamoylmethyl-1H-tetrazol-5-ylsulphanylmethyl)-1-oxo-1,1a,2,3,3a,6b-hexahydro-4-oxa-2,6a-diazacyclobut[cd]indene-6-carboxylic acid]
[1]
  MIC C. freundii 1982 (D): 4 µg/mL
[2]
  MIC E. coli 1346 (E): 8 µg/mL (≈ 21.8 µM)

## CNC(=O)Cn1nnnc1SCC1=C(C(=O)O)N2C(=O)[C@H]3NC[C@@H](O1)[C@H]32 [Example 29(k), (1aS,3aR,6bS)-5-(1-Methylcarbamoylmethyl-1H-tetrazol-5-ylsulphanylmethyl)-1-oxo-1,1a,2,3,3a,6 b-hexahydro-4-oxa-2,6a-diazacyclobut[cd]indene-6-carboxylic acid]
[1]
  MIC C. freundii 1982 (D): 8 µg/mL
[2]
  MIC E. coli 1346 (E): 32 µg/mL (≈ 83.9 µM)
